From BindingDB's records for doi:10.7270/Q2F769WQ (University of Pittsburgh, 2007)

These molecules were tested against T1, Dual specificity protein phosphatase 1 (Homo sapiens, UniProt P28562) (assay: MKP-1 phosphatase inhibitor potency, dose response, biochemical, in vitro, confirmation (AID 551)). Settings: pH 7; 22 °C.
T1 sequence (P28562 whole entry): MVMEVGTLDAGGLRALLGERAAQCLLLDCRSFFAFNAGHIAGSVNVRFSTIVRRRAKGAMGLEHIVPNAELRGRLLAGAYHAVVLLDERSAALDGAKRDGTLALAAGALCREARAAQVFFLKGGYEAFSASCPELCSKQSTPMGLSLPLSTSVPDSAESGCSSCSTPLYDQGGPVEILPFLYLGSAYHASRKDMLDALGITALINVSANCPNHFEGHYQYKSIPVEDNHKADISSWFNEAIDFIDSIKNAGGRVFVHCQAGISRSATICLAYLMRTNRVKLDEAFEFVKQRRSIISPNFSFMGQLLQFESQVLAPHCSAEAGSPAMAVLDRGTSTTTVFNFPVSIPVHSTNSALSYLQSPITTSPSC
Molecule Cc1cccc(NC(=O)c2cc(NC(=O)C3CCCCC3C(=O)O)ccc2N2CCCCC2)c1 (configuration not stated) [2-({[3-{[(3-methylphenyl)amino]carbonyl}-4-(1-piperidinyl)phenyl]amino}carbonyl)cyclohexanecarboxylic acid] has an IC50 of 49.2 µM.
With Cc1ccc(Nc2nc(CSc3nnnn3-c3ccccc3)cc(=O)[nH]2)cc1 [2-[(4-methylphenyl)amino]-6-{[(1-phenyl-1H-tetrazol-5-yl)thio]methyl}-4(3H)-pyrimidinone] the IC50 was > 50 µM.
O=C(CSc1nc2ccccc2c(=O)[nH]1)Nc1ccc(S(=O)(=O)N2CCCC2)cc1 [2-[(4-oxo-1H-quinazolin-2-yl)sulfanyl]-N-(4-pyrrolidin-1-ylsulfonylphenyl)acetamide] was tested, and the IC50 was > 50 µM.
In the case of Cc1ccc(/C=C/C2=Cc3c(sc(NC(=O)CSc4nnc(N)[nH]4)c3C#N)C(C)(C)C2)o1 [2-[(5-azanyl-1H-1,2,4-triazol-3-yl)sulfanyl]-N-[3-cyano-7,7-dimethyl-5-[(E)-2-(5-methylfuran-2-yl)ethenyl]-6H-1-benzothiophen-2-yl]ethanamide], the IC50 is reported as 9.38 µM.
CCOc1ccc2nc(Nc3nc4c(c(=O)[nH]3)CCC4)nc(C)c2c1 [2-[(6-ethoxy-4-methylquinazolin-2-yl)amino]-1,5,6,7-tetrahydrocyclopenta[d]pyrimidin-4-one] was tested, and the IC50 was > 50 µM.
With CCCCNC(=O)c1c(N)n(CCCOC)c2nc3ccccc3nc12 [2-amino-N-butyl-1-(3-methoxypropyl)-3-pyrrolo[3,2-b]quinoxalinecarboxamide] the IC50 was 26.2 µM.
In the case of C=CCn1c(NC(=O)c2ccccc2Cl)c(C#N)c2nc3ccccc3nc21 [2-chloro-N-(3-cyano-1-prop-2-enyl-2-pyrrolo[3,2-b]quinoxalinyl)benzamide], the IC50 is reported as > 50 µM.
For Cc1cccc(N2CCN(C(=O)c3cc4c(=O)[nH]c5ccccc5c4n3C)CC2)c1C [2-{[4-(2,3-dimethylphenyl)piperazin-1-yl]carbonyl}-1-methyl-1,5-dihydro-4H-pyrrolo[3,2-c]quinolin-4-one], the IC50 was > 50 µM.
For COc1ccc(C(=O)CSc2nnc(CNC(=O)c3ccc(OC)c(OC)c3)n2C)cc1 [3,4-dimethoxy-N-[(5-{[2-(4-methoxyphenyl)-2-oxoethyl]thio}-4-methyl-4H-1,2,4-triazol-3-yl)methyl]benzamide], the IC50 was > 50 µM.
CCCn1nnc(NC(=O)c2cc(Br)cc(Br)c2OC)n1 [3,5-bis(bromanyl)-2-methoxy-N-(2-propyl-1,2,3,4-tetrazol-5-yl)benzamide] was tested, and the IC50 was > 50 µM.
For O=c1c2cc(N3CCOCC3)ccc2[nH]c(=S)n1Cc1ccco1 [3-(2-furanylmethyl)-6-(4-morpholinyl)-2-sulfanylidene-1H-quinazolin-4-one], the IC50 was > 50 µM.
In the case of CC1CCCCC1NC(=O)CCn1c(=O)oc2ccccc21 (configuration not stated) [3-(2-keto-1,3-benzoxazol-3-yl)-N-(2-methylcyclohexyl)propionamide], the IC50 is reported as > 50 µM.
N#Cc1c(N)sc(=S)c2c1CCN(Cc1ccccc1)C2 [3-Amino-7-benzyl-1-thioxo-5,6,7,8-tetrahydro-1H-thiopyrano[3,4-c]pyridine-4-carbonitrile] was tested, and the IC50 was 1.13 µM.
In the case of O=C1C=C(NCc2ccc(Cl)c(Cl)c2)CC1 [3-[(3,4-dichlorobenzyl)amino]cyclopent-2-en-1-one], the IC50 is reported as > 50 µM.
CCCSc1nnc(NC(=O)c2sc3nc(-c4cccs4)ccc3c2N)s1 [3-amino-N-(5-propylsulfanyl-1,3,4-thiadiazol-2-yl)-6-thiophen-2-ylthieno[2,3-b]pyridine-2-carboxamide] showed an IC50 of 12.4 µM.
For O=C(c1cccn2c(=O)c3ccc(Cl)cc3nc12)N1CCN(Cc2ccc3c(c2)OCO3)CC1 [3-chloro-6-(4-piperonylpiperazine-1-carbonyl)pyrido[2,1-b]quinazolin-11-one], the IC50 was > 50 µM.
Molecule O=C1Nc2ccccc2SC(c2ccccc2)C1O (configuration not stated) [3-hydroxy-2-phenyl-2,3-dihydro-1,5-benzothiazepin-4(5H)-one] has an IC50 of 20.1 µM.
For CCOC(=O)CC(=O)CSc1nnc2sc3ccccc3n12 [3-keto-4-([1,2,4]triazolo[3,4-b][1,3]benzothiazol-1-ylthio)butyric acid ethyl ester], the IC50 was > 50 µM.
With COC(=O)CCCc1nc2ccccc2s1 [4-(1,3-benzothiazol-2-yl)butanoic acid methyl ester] the IC50 was > 50 µM.
With Cc1cccc(N2CCN(S(=O)(=O)c3ccc4c(c3)CCN4C(=O)CCC(=O)O)CC2)c1C [4-(5-{[4-(2,3-dimethylphenyl)piperazin-1-yl]sulfonyl}-2,3-dihydro-1H-indol-1-yl)-4-oxobutanoic acid] the IC50 was > 50 µM.
With CC1CCCCC1NS(=O)(=O)c1ccc(S(=O)(=O)NCc2ccncc2)cc1 (configuration not stated) [4-N-(2-methylcyclohexyl)-1-N-(pyridin-4-ylmethyl)benzene-1,4-disulfonamide] the IC50 was > 50 µM.
With COC(=O)CCC(=O)Oc1ccc(OC(=O)CCC(=O)OC)cc1 [4-O-[4-(4-methoxy-4-oxobutanoyl)oxyphenyl] 1-O-methyl butanedioate] the IC50 was > 50 µM.
With CCOC(=O)N1CCC(NC(=O)c2cccn3c(=O)c4cc(Br)ccc4nc23)CC1 [4-[(2-bromo-11-keto-pyrido[2,1-b]quinazoline-6-carbonyl)amino]piperidine-1-carboxylic acid ethyl ester] the IC50 was > 50 µM.
With O=C(c1n[nH]c(=O)c2ccccc12)N1CCN(C2c3ccccc3-c3ccccc32)CC1 [4-[[4-(9H-fluoren-9-yl)-1-piperazinyl]-oxomethyl]-2H-phthalazin-1-one] the IC50 was > 50 µM.
For Cc1ccc(NC(=O)COC(=O)c2ccc3c(c2)NC(=O)C2CCCN32)cc1C (configuration not stated) [4-keto-2,3,3a,5-tetrahydro-1H-pyrrolo[1,2-a]quinoxaline-7-carboxylic acid [2-(3,4-dimethylanilino)-2-keto-ethyl] ester], the IC50 was > 50 µM.
For Cc1ccc(S(=O)(=O)NCC(C)NS(=O)(=O)c2ccc(C)cc2)cc1 (configuration not stated) [4-methyl-N-[2-(tosylamino)propyl]benzenesulfonamide], the IC50 was > 50 µM.
With COC(=O)C1C(C)=NC2=C(C(=O)c3ccccc32)C1c1ccc(-c2ccc(C(=O)O)cc2)o1 (configuration not stated) [4-{5-[3-(methoxycarbonyl)-2-methyl-5-oxo-4,5-dihydro-1H-indeno[1,2-b]pyridin-4-yl]-2-furyl}benzoic acid] the IC50 was > 50 µM.
With c1ccc(SCc2nc(-c3ccncc3)no2)cc1 [4-{5-[(phenylthio)methyl]-1,2,4-oxadiazol-3-yl}pyridine] the IC50 was > 50 µM.
CC(C)(C)N1C(=O)Cc2c1nc(N)c1c(N)nc(N3CCCCC3CO)c(C#N)c21 (configuration not stated) [5,6-bis(azanyl)-3-tert-butyl-8-[2-(hydroxymethyl)piperidin-1-yl]-2-oxidanylidene-1H-pyrrolo[2,3-c][2,7]naphthyridine-9-carbonitrile] was tested, and the IC50 was > 50 µM.
For COc1cc(/C=C(/C#N)c2ccc(F)cc2)ccc1OCc1ccc(C(=O)O)o1 [5-({4-[2-cyano-2-(4-fluorophenyl)vinyl]-2-methoxyphenoxy}methyl)-2-furoic acid], the IC50 was > 50 µM.
In the case of COc1ccc(Br)cc1C=c1sc2nc(-c3ccco3)nn2c1=O [5-[(5-bromanyl-2-methoxy-phenyl)methylidene]-2-(furan-2-yl)-[1,3]thiazolo[3,2-b][1,2,4]triazol-6-one], the IC50 is reported as 4.49 µM.
CCOc1cc(/C=C(/C#N)c2ccc(F)cc2)ccc1OCc1ccc(C(=O)O)o1 [5-[[4-[(E)-2-cyano-2-(4-fluorophenyl)ethenyl]-2-ethoxyphenoxy]methyl]furan-2-carboxylic acid] was tested, and the IC50 was 36.1 µM.
N#Cc1c(NC(=O)c2ccc(Br)o2)n(-c2ccccc2)c2nc3ccccc3nc12 [5-bromanyl-N-(3-cyano-1-phenyl-pyrrolo[3,2-b]quinoxalin-2-yl)furan-2-carboxamide] showed an IC50 of 14 µM.
In the case of Cc1cccc(N2CCN(C(=O)Cc3c(C(=O)O)[nH]c4ccc(Cl)cc34)CC2)c1C [5-chloranyl-3-[2-[4-(2,3-dimethylphenyl)piperazin-1-yl]-2-oxidanylidene-ethyl]-1H-indole-2-carboxylic acid], the IC50 is reported as 25.8 µM.
Molecule CCCCCNC(=O)c1ccc2c(=O)[nH]c3c(C(=O)NCC4CCCO4)sc(=S)n3c2c1 (configuration not stated) [5-oxo-N3-(2-oxolanylmethyl)-N8-pentyl-1-sulfanylidene-4H-thiazolo[3,4-a]quinazoline-3,8-dicarboxamide] has an IC50 of 38.4 µM.
With COc1ccc(-c2cn3c(C)c(C(=O)Nc4cccc(C)n4)sc3n2)cc1 [6-(4-methoxyphenyl)-3-methyl-N-(6-methyl-2-pyridinyl)-2-imidazo[2,1-b]thiazolecarboxamide] the IC50 was > 50 µM.
For Cc1ccc(C)c(-n2nnnc2SCC(=O)c2ccc3c(c2)NC(=O)CO3)c1 [6-[2-[1-(2,5-dimethylphenyl)tetrazol-5-yl]sulfanylacetyl]-4H-1,4-benzoxazin-3-one], the IC50 was > 50 µM.
CN1Cc2cc(C(=O)c3cc(Cl)cc(CSc4ncccn4)c3O)cnc2NC1=O [6-[5-chloranyl-2-oxidanyl-3-(pyrimidin-2-ylsulfanylmethyl)phenyl]carbonyl-3-methyl-1,4-dihydropyrido[2,3-d]pyrimidin-2-one] was tested, and the IC50 was > 50 µM.
Cc1nc2c(C(=O)NCCC3=CCCCC3)c[nH]n2c(=O)c1Cl [6-chloro-N-(2-cyclohex-1-en-1-ylethyl)-7-hydroxy-5-methylpyrazolo[1,5-a]pyrimidine-3-carboxamide] gave an IC50 of 31.1 µM.
O=C1CC(c2ccccc2)c2cc(O)ccc2O1 (configuration not stated) [6-hydroxy-4-phenyl-3,4-dihydro-2H-1-benzopyran-2-one] gave an IC50 of 49.2 µM.
For O=C(c1ccc2c(=O)n(C3CCCC3)c(=S)[nH]c2c1)N1CCN(C2CCCCC2)CC1 [7-[(4-cyclohexyl-1-piperazinyl)-oxomethyl]-3-cyclopentyl-2-sulfanylidene-1H-quinazolin-4-one], the IC50 was > 50 µM.
With O=c1c2ccc[nH]c-2c(Nc2ccc(S(=O)(=O)N3CCCCCC3)cc2)n1Cc1ccccc1 [7-[[4-(azepan-1-ylsulfonyl)phenyl]amino]-6-(phenylmethyl)-7H-pyrrolo[3,4-b]pyridin-5-one] the IC50 was > 50 µM.
